Assay results from patent US20150225369A1, “DDR2 INHIBITORS FOR THE TREATMENT OF OSTEOARTHRITIS” (Merck Patent GmbH, priority 2012, published 2015).

Molecular target: T1, His-tagged human recombinant DDR-2 kinase domain (His-TEV-DDR2 467-855 aa) (Homo sapiens, UniProt Q16832)
T1 construct: His-TEV-DDR2 467-855 aa
T1 sequence (Q16832 467-855): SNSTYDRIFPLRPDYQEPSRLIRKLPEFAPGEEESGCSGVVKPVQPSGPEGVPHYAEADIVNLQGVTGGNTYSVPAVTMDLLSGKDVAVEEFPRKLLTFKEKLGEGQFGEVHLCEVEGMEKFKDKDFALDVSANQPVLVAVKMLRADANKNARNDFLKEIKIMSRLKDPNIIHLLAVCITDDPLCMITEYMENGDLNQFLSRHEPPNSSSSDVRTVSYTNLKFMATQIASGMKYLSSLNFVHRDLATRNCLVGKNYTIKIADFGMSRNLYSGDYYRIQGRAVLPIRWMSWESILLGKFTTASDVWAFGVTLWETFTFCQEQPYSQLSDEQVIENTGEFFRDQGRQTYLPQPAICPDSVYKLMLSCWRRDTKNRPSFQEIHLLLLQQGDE
Assay: Autophosphorylation assay for biochemical activity testing of DDR2 (HTRF)
Conditions: biochemical DDR2 autophosphorylation
Procedure: The autophosphorylation assay was run in two steps: the enzymatic reaction in which His-tagged DDR2 with ATP as co-substrate phosphorylates itself and the detection reaction where a time resolved FRET between XL665® labelled anti-6His antibody bound to the His-tag of the enzyme and cryptate labelled anti-phospho-Tyrosine-antibody (PT66) bound the phosphorylated Tyrosine residue of DDR2 was analysed. The autophosphorylation activity was detectable directly via the increase in HTRF signal.
The autophosphorylation assay was performed as 1536 well or 384 well HTRF® (Cisbio, Codolet, France) assay format in Greiner low volume medium binding 384-well microtiter plates and was used for high throughput screen. […] The ratio of the emission signals was determined. The full value used was the inhibitor-free reaction.

| IC50 [µM] | Compound |
| --- | --- |
| 9.6 | CC(C)c1ccc(NC(=O)NCc2ccc(Oc3ccncc3)cc2)cc1 [compound 49, 1-(4-Isopropyl-phenyl)-3-[4-(pyridin-4-yloxy)-benzyl]-urea] |
| 1.7 | Cc1ccc(Cl)cc1NC(=O)NCc1ccc(Oc2ccncc2)cc1 [compound 50, 1-(5-Chloro-2-methyl-phenyl)-3-[4-(pyridin-4-yloxy)-benzyl]-urea] |
| 10 | CSc1ccc(NC(=O)NCc2ccc(Oc3ccncc3)cc2)cc1 [compound 51, 1-(4-Methylsulfanyl-phenyl)-3-[4-(pyridin-4-yloxy)-benzyl]-urea] |
| 9.9 | CCc1ccc(NC(=O)NCc2ccc(Oc3ccncc3)cc2)cc1 [compound 52, 1-(4-Ethyl-phenyl)-3-[4-(pyridin-4-yloxy)-benzyl]-urea] |
| 0.056 | O=C(NCc1ccc(Oc2ccncc2)cc1)Nc1cccc(Br)c1 [compound 53, 1-(3-Bromo-phenyl)-3-[4-(pyridin-4-yloxy)-benzyl]-urea] |
| ≥ 100 | Cc1cc(Cl)ccc1NC(=O)NCc1ccc(Oc2ccncc2)cc1 [compound 54, 1-(4-Chloro-2-methyl-phenyl)-3-[4-(pyridin-4-yloxy)-benzyl]-urea] |
| 7.5 | O=C(NCc1ccc(Oc2ccncc2)cc1)Nc1ccc(OC(F)(F)F)cc1 [compound 55, 1-[4-(Pyridin-4-yloxy)-benzyl]-3-(4-trifluoromethoxy-phenyl)-urea] |
| 16 | CC(C)(C)c1ccc(NC(=O)NCc2ccc(Oc3ccncc3)cc2)cc1 [compound 56, 1-(4-tert-Butyl-phenyl)-3-[4-(pyridin-4-yloxy)-benzyl]-urea] |
| 1.2 | O=C(NCc1ccc(Oc2ccncc2)cc1)Nc1cc(Cl)cc(Cl)c1 [compound 57, 1-(3,5-Dichloro-phenyl)-3-[4-(pyridin-4-yloxy)-benzyl]-urea] |
| 4.7 | Cc1cc(NC(=O)NCc2ccc(Oc3ccncc3)cc2)ccc1Br [compound 58, 1-(4-Bromo-3-methyl-phenyl)-3-[4-(pyridin-4-yloxy)-benzyl]-urea] |
| 2.1 | Cc1ccc(NC(=O)NCc2ccc(Oc3ccncc3)cc2)cc1C [compound 59, 1-(3,4-Dimethyl-phenyl)-3-[4-(pyridin-4-yloxy)-benzyl]-urea] |
| 2.8 | COc1ccc(NC(=O)NCc2ccc(Oc3ccncc3)cc2)cc1Cl [compound 60, 1-(3-Chloro-4-methoxy-phenyl)-3-[4-(pyridin-4-yloxy)-benzyl]-urea] |
| 0.49 | CCc1cccc(NC(=O)NCc2ccc(Oc3ccncc3)cc2)c1 [compound 61, 1-(3-Ethyl-phenyl)-3-[4-(pyridin-4-yloxy)-benzyl]-urea] |
| 0.002 | COc1ccc(C(F)(F)F)cc1NC(=O)NCc1ccc(Oc2ccncc2)cc1 [compound 62, 1-(2-Methoxy-5-trifluoromethyl-phenyl)-3-[4-(pyridin-4-yloxy)-benzyl]-urea] |
| 0.061 | CNC(=O)c1cc(Oc2ccc(CNC(=O)Nc3cc(C(F)(F)F)ccc3OC)cc2)ccn1 [compound 63, 4-{4-[3-(2-Methoxy-5-trifluoromethyl-phenyl)-ureidomethyl]-phenoxy}-pyridine-2-carboxylic acid methylamide] |
| 1.7 | O=C(NCc1ccc(Oc2ccncc2)cc1)Nc1ccc(Br)c(C(F)(F)F)c1 [compound 64, 1-(4-Bromo-3-trifluoromethyl-phenyl)-3-[4-(pyridin-4-yloxy)-benzyl]-urea] |
| 0.035 | O=C(NCc1ccc(Oc2ccncc2)cc1)Nc1cccc(OC(F)(F)F)c1 [compound 65, 1-[4-(Pyridin-4-yloxy)-benzyl]-3-(3-trifluoromethoxy-phenyl)-urea] |
| 0.175 | CNC(=O)c1cc(Oc2ccc(CNC(=O)Nc3cc(C(F)(F)F)c(Cl)cc3OC)cc2)ccn1 [compound 67, 4-{4-[3-(4-Chloro-2-methoxy-5-trifluoromethyl-phenyl)-ureidomethyl]-phenoxy}-pyridine-2-carboxylic acid methylamide] |

| IC50 [µM] | Compound |
| --- | --- |
| 4.6 | O=C(Nc1ccc(Cl)c(C(F)(F)F)c1)NC1(c2ccc(Oc3ccncc3)cc2)CC1 [compound 68, 1-(4-Chloro-3-trifluoromethyl-phenyl)-3-{1-[4-(pyridin-4-yloxy)-phenyl]-cyclopropyl}-urea] |
| 0.15 | CNC(=O)c1cc(Oc2ccc(C(C)NC(=O)Nc3cc(C(F)(F)F)ccc3OC)cc2)ccn1 (stereo not drawn) [compound 69, 4-(4-{1-[3-(2-Methoxy-5-trifluoromethyl-phenyl)-ureido]-ethyl}-phenoxy)-pyridine-2-carboxylic acid methylamide] |
| 0.069 | CNC(=O)c1cc(Oc2ccc(CNC(=O)Nc3cc(C)ccc3OC)cc2)ccn1 [compound 75, 4-{4-[3-(2-Methoxy-5-methyl-phenyl)-ureidomethyl]-phenoxy}-pyridine-2-carboxylic acid methylamide] |
| 0.078 | CNC(=O)c1cc(Oc2ccc(CNC(=O)Nc3cc(C(F)(F)F)ccc3OCCN(C)C)cc2)ccn1 [compound 77, 4-(4-{3-[2-(2-Dimethylamino-ethoxy)-5-trifluoromethyl-phenyl]-ureidomethyl}-phenoxy)-pyridine-2-carboxylic acid methylamide] |
| 0.41 | CNC(=O)c1cc(Oc2ccc(CNC(=O)Nc3ccc(Cl)cc3OC)cc2)ccn1 [compound 79, 4-{4-[3-(4-Chloro-2-methoxy-phenyl)-ureidomethyl]-phenoxy}-pyridine-2-carboxylic acid methylamide] |
| 0.23 | CNC(=O)c1cc(Oc2ccc(CNC(=O)Nc3cc(OC)c([N+](=O)[O-])cc3OC)cc2)ccn1 [compound 81, 4-{4-[3-(2,5-Dimethoxy-4-nitro-phenyl)-ureidomethyl]-phenoxy}-pyridine-2-carboxylic acid methylamide] |
| 2.9 | CNC(=O)c1cc(Oc2ccc(CNC(=O)Nc3ccc(C(=O)OC)cc3OC)cc2)ccn1 [compound 82, 3-Methoxy-4-{3-[4-(2-methylcarbamoyl-pyridin-4-yloxy)-benzyl]-ureido}-benzoic acid methyl ester] |
| 3.8 | CNC(=O)c1cc(Oc2ccc(CNC(=O)Nc3ccccn3)cc2)ccn1 [compound 85, 4-{4-[(3-Pyridin-2-yl-ureido)-methyl]-phenoxy}-pyridine-2-carboxylic acid methylamide] |
| 1.2 | CNC(=O)c1cc(Oc2ccc(CNC(=O)Nc3ccccc3OCCCN(C)C)cc2)ccn1 [compound 86, 4-(4-{3-[2-(3-Dimethylamino-propoxy)-phenyl]-ureidomethyl}-phenoxy)-pyridine-2-carboxylic acid methylamide] |
| 1.6 | CNC(=O)c1cc(Oc2ccc(CNC(=O)Nc3cccnc3OC)cc2)ccn1 [compound 87, 4-{4-[3-(2-Methoxy-pyridin-3-yl)-ureidomethyl]-phenoxy}-pyridine-2-carboxylic acid methylamide] |
| 15 | CNC(=O)c1cc(Oc2ccc(CNC(=O)Nc3cccnc3)cc2)ccn1 [compound 88, 4-{4-[(3-Pyridin-3-yl-ureido)-methyl]-phenoxy}-pyridine-2-carboxylic acid methylamide] |
| ≥ 100 | CNC(=O)c1cc(Oc2ccc(CNC(=O)Nc3ccncc3)cc2)ccn1 [compound 90, 4-{4-[(3-Pyridin-4-yl-ureido)-methyl]-phenoxy}-pyridine-2-carboxylic acid methylamide] |
| 6.6 | CNC(=O)c1cc(Oc2ccc(CNC(=O)Nc3ncc(C(F)(F)F)cc3Cl)cc2)ccn1 [compound 91, 4-{4-[3-(3-Chloro-5-trifluoromethyl-pyridin-2-yl)-ureidomethyl]-phenoxy}-pyridine-2-carboxylic acid methylamide] |
| 0.038 | CNC(=O)c1cc(Oc2ccc(CNC(=O)Nc3cc(C(F)(F)F)ccc3OCC(=O)OC)cc2)ccn1 [compound 92, (2-{3-[4-(2-Methylcarbamoyl-pyridin-4-yloxy)-benzyl]-ureido}-4-trifluoromethyl-phenoxy)-acetic acid methyl ester] |
| 1.6 | CNC(=O)c1cc(Oc2ccc(CNC(=O)Nc3cc(C(F)(F)F)ccc3OCC(=O)O)cc2)ccn1 [compound 94, (2-{3-[4-(2-Methylcarbamoyl-pyridin-4-yloxy)-benzyl]-ureido}-4-trifluoromethyl-phenoxy)-acetic acid] |
| 0.081 | CNC(=O)c1cc(Oc2ccc(CNC(=O)Nc3cc(C(F)(F)F)c(Cl)cc3OCCN(C)C)cc2)ccn1 [compound 95, 4-(4-{3-[4-Chloro-2-(2-dimethylamino-ethoxy)-5-trifluoromethyl-phenyl]-ureidomethyl}-phenoxy)-pyridine-2-carboxylic acid methylamide] |
| 0.17 | CNC(=O)c1cc(Oc2ccc(CNC(=O)Nc3cc4ccccc4cn3)cc2)ccn1 [compound 96, 4-{4-[(3-Isoquinolin-3-yl-ureido)-methyl]-phenoxy}-pyridine-2-carboxylic acid methylamide] |

| Compound | IC50 [µM] |
| --- | --- |
| CNC(=O)c1cc(Oc2ccc(CNC(=O)Nc3cc(Cl)cnc3Cl)cc2)ccn1 [compound 93, 4-{4-[3-(2,5-Dichloro-pyridin-3-yl)-ureidomethyl]-phenoxy}-pyridine-2-carboxylic acid methylamide] | 0.042 |
